From paper PMC9182188, “Isoquinoline Alkaloid Contents in Macleaya cordata Extracts and Their Acetylcholinesterase and Butyrylcholinesterase Inhibition” (Molecules, 2022)
Values after ≈ are worked out from the molar mass of the structure shown. Read-outs that look alike come from different tables or passages of the source.

Key:
[1] = target: T1, acetylcholinesterase (Homo sapiens, UniProt P22303); format: biochemical; settings: alkaloid standards; HPLC-DAD; 0.2 U/mL enzyme; 15 min at 37 °C; pH 7.8
T1 construct: purchased Sigma-Aldrich
T1 sequence (P22303 32-614, species assumed): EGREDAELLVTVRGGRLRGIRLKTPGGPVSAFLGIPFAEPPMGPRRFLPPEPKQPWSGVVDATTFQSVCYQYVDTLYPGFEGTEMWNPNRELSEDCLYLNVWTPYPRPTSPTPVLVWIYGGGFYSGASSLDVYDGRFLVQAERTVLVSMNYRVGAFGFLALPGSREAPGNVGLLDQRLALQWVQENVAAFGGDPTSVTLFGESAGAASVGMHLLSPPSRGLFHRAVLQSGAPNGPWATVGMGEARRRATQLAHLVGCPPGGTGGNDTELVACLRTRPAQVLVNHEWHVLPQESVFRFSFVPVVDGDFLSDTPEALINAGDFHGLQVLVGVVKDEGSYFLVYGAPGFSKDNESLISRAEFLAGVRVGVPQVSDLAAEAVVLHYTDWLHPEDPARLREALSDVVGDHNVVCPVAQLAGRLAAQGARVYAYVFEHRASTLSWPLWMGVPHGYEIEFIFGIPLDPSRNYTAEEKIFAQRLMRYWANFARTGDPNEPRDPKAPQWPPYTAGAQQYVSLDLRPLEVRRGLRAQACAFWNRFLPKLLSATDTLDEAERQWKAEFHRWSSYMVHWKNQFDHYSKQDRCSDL
Experimental: For determination of acetylcholinesterase inhibitory activity of alkaloid standards and plant extracts by HPLC analysis was performed on the same apparatus as determination of alkaloid contents on Polar RP column with mobile phase A containing methanol and 0.0025 M diethylamine, mobile phase B containing acetate buffer at pH 3.8 and 0.0025 M diethylamine, mobile phase in gradient elution: 0–15 min, 10% A; 15–30 min, 10–70% A; 30–60 min, 70% A. Flow rate was 1 mL/min.
(§1) Samples for determination of acetylcholinesterase inhibitory activity were prepared by addition of 50 µL of acetylthiocholine iodide, 50 µL of 5′-dithiobis-(2-nitrobenzoic acid), 50 µL of acetylcholinesterase at concentration 2 U/mL and phosphate buffer at pH 7.8 to obtaining 500 µL of final solution. […] All components were mixed and samples were incubated for 15 min at 37 °C. Samples were filtrated by syringe filter (CHROMAFIL Xtra, PVDF-29/25 0.20 µm) and injected into HPLC system. […] All experiments were performed in triplicates.

[2] = target: T2, butyrylcholinesterase (Homo sapiens, UniProt P06276); assay: Butyrylcholinesterase inhibitory activity by HPLC-DAD (Ellman reaction product TNBA); format: biochemical; settings: alkaloid standards, 0.2 U/mL enzyme, 15 min at 37 °C
T2 construct: purchased Sigma-Aldrich
T2 sequence (P06276 29-602): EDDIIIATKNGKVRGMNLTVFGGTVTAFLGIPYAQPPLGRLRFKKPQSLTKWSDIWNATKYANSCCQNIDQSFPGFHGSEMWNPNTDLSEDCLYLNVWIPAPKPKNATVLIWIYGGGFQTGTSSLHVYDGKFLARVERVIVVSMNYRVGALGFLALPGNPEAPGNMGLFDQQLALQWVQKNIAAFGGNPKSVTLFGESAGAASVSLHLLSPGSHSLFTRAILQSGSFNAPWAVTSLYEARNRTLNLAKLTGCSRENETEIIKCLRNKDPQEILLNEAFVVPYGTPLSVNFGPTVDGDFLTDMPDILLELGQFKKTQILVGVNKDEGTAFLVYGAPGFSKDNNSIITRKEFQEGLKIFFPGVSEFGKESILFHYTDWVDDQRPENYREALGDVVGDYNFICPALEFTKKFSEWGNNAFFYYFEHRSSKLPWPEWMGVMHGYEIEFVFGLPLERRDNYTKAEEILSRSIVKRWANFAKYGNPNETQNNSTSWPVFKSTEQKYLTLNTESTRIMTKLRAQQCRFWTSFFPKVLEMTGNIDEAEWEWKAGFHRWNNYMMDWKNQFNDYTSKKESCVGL
Experimental: For determination of butyrylcholinesterase inhibitory activity of alkaloid standards and plant extracts by HPLC analysis was performed on the same apparatus, column and mobile phase as determination of acetylcholinesterase inhibitory activity.
as §1, with “butyrylcholinesterase” for “acetylcholinesterase”, “butyrylthiocholine” for “acetylthiocholine”

[3] = target: T1, acetylcholinesterase; assay: Kinetic analysis of acetylcholinesterase inhibition (Lineweaver-Burk and secondary plots); format: biochemical; settings: for type of acetylcholinesterase inhibition: Lineweaver-Burk and Dixon plots; for Ki: estimated from slope of Lineweaver-Burk plots vs inhibitor concentration, read-out: Ki (inhibition constant), acetylcholinesterase
Source text: The type of inhibition and inhibition constants (Ki value) of the compounds were investigated using Lineweaver–Burk and Dixon plots (Figure 5 and Figure 6).
The Ki values were estimated by plotting the slope of the individual Lineweaver–Burk plots versus the inhibitor concentrations (Figure 5B and Figure 6B).
For determination of 5-thio-2-nitro-benzoic acid, the product of reaction between the thiocholine with Ellman’s reagent, HPLC-DAD method was applied. The chromatographic analysis was performed in the same conditions as was used for determination of cholinesterase activity described above. Quantification of 5-thio-2-nitro-benzoic acid was performed by a calibration curve method. 5-thio-2-nitrobenzoic acid was prepared from 5′-dithiobis-(2-nitrobenzoic acid) as described by Landino et al.. 0.5 g of 5′-dithiobis-(2-nitrobenzoic acid) in 25 mL 0.5 M Tris–HCl, pH 8.8, was treated with 2.5 mL β-mercaptoethanol. The pH of the solution was adjusted to 1.5 with 6M HCl. 5-thio-2-nitro-benzoic acid was formed after 6–8 h at 4 °C. The crystals of -thio-2-nitro-benzoic acid were filtered and washed with cold 0.1 M HCl. Types of inhibition were determined by the graphical analysis of Lineweaver–Burk plots and its secondary plots.

[4] = target: T1, acetylcholinesterase; settings: modified Ellman's method; read-out: IC50 against acetylcholinesterase; cited from earlier work
[5] = target: T2, butyrylcholinesterase; settings: modified Ellman's method; read-out: IC50 against butyrylcholinesterase; cited from earlier work
[6] = system: swine or human cell lines; settings: cited from earlier work
[7] = system: pig livers; settings: 32P-post-labeling assay; cited from earlier work
[8] = pH 7.8, read-out: IC50 values Butyrylcholinesterae
[9] = pH 7.8, read-out: IC50 values Butyrylcholinesterae (μg/mL) (converted)

| SMILES | IC50 [1] | IC50 [2, 8] | IC50 [2, 9] | type of acetylcholinesterase inhibition [3] | Ki [3] | IC50 [4] | IC50 [5] | toxicity [6] | DNA adducts [7] | IC50 values Acetylcholinesterase [1] | IC50 ([2]; IC50 values Butyrylcholinesterae (μM), pH 7.8) | IC50 ([2]; IC50 values Butyrylcholinesterae (μg/mL), pH 7.8) |
| --- | --- | --- | --- | --- | --- | --- | --- | --- | --- | --- | --- | --- |
| COc1ccc2c(c[n+](C)c3c4cc5c(cc4ccc23)OCO5)c1OC [Chelerythrine, chelerythrine] | 0.72 ± 0.08 µM | 2.15 ± 0.19 µM | 2.15 µM | competitive | 0.18 µM | 1.03 µM | 3.55 µM | low toxicity | no DNA adducts | – | – | – |
| CN1CCc2cc3c(cc2C(=O)Cc2ccc4c(c2C1)OCO4)OCO3 [Protopine, protopine] | – | – | – | – | – | – | – | – | – | 24.67 µg/mL (≈ 69.8 µM) | 52.8 ± 4.81 µM | 52.8 µM |
| C[n+]1cc2c3c(ccc2c2ccc4cc5c(cc4c21)OCO5)OCO3 [Sanguinarine, sanguinarine] | 5.57 ± 0.47 µM | 9.82 ± 0.91 µM | 9.81 µM | noncompetitive | 0.2 µM | – | – | low toxicity | no DNA adducts | – | – | – |
